Patent publication US20160115540A1, “PRODRUGS AND DRUGS” (Biogen MA Inc., priority 2013, published 2016)
Counter-ions that a name gives are not always drawn.

System: kidney
Assay: Transcriptional profiling on Affymetrix GeneChips, single dose, naïve mice: kidney
Assay type: in vivo, C57BL/6 mice
Details: kidney; 100MMF-vs-Veh, 12 h
Experimental: Treated mice were sacrificed at 2, 7, or 12 hours. Tissues (liver, spleen, kidney, jejunum, cortex, hippocampus, striatum and whole blood) were collected and analyzed by transcriptional profiling on mouse Affymetrix GeneChips.
Tissues (liver, spleen, kidney, jejunum, cortex, hippocampus, striatum and whole blood) were collected and analyzed by transcriptional profiling on mouse Affymetrix GeneChips.
Animals were exposed to CO2 and whole blood collected via cardiac puncture. Two 100 μl aliquots of whole blood were collected in 1.5 mL microcentrifuge tubes and snap frozen in liquid nitrogen. Peripheral (liver, spleen, kidney and jejunum) and CNS brain (cerebellum, hippocampus, striatum and cortex) tissues were harvested and snap frozen in liquid nitrogen, with special care taken to collect tissues of similar size and from the same location. All samples were stored at −80° C. until RNA extraction was conducted.
For RNA preparation, frozen tissues were placed in 2 mL RNAse-free 96-well blocks with 1.5 mL QIAzol Lysis Reagent (QIAgen) and a 3.2 mm stainless steel bead (BioSpec Products, Bartlesville, Okla.). Tissues were disrupted for four cycles of 45 seconds in a Mini-Beadbeater (Biospec Products). RNA was extracted in chloroform and the aqueous phase was mixed with an equal volume of 70% ethanol. Extracted RNA was applied to RNeasy 96 plates and purified by the spin method according to the manufacturer's protocol (RNeasy 96 Universal Tissue Protocol, QIAgen, Hilden Germany).
Automated sample amplifications and biotin labelings were carried out using the NuGEN Ovation RNA Amplification system V2 (Cat #3100), Ovation WB reagent (Cat #1300) and Encore Biotin module (Cat #4200) (NuGEN Technologies, Inc, San Carlos, Calif.) according to manufacturer's recommendations using an Arrayplex automated liquid handler (Beckman Coulter, Indianapolis, Ind.). Two micrograms of biotin labeled sscDNA probe were hybridized to Affymetrix GeneChip Affymetrix HT_MG-430_PM plate arrays with modified conditions as described in Allaire et al. Washing and staining of the hybridized arrays were completed as described in the GeneChip Expression analysis technical manual for HT plate arrays using the Genechip® Array Station (Affymetrix, Santa Clara, Calif.) with modifications as described in Allaire et al. The processed GeneChip® plate arrays were scanned using GeneTitan scanner (Affymetrix, Santa Clara, Calif.).
Affymetrix scans were subject to quality control (QC) measures. These tests included a visual inspection of the distribution of raw signal intensities and an assessment of RNA degradation, relative log expression (RLE), and normalized unsealed standard error (NUSE). All sample scans that passed these QC metrics were included in the analysis.
All CEL files were subjected to GC-content-based Robust Multi-array Average (GCRMA) normalization (version 2.20.0) (Irizarry R A, et al. Nucleic Acids Res 2003; 31:e15; Li C, et al. Genome Biol 2001; 2:[…]0032). Expression levels were log (base 2) transformed.
All calculations and analyses were carried out using R (version 2.11.1) and Bioconductor computational tools (Gentleman R. Springer Science+Business Media 2005).

Compound: COC(=O)/C=C/C(=O)O [MMF, monomethyl fumarate]
- FC 9130221J18Rik (1446368_PM_at): −1.53
- FC AB099516 /// Higd1c (1447356_PM_at): −1.57
- FC Abcc3 (1428988_PM_at): 1.64
- FC Abcc4 1443870_PM_at: 2.07
- FC Acot1 (1449065_PM_at): 1.59
- FC Acsm2 (1427224_PM_at): −1.52
- FC Agps 1434919_PM_at: −1.80
- FC Akr1b8 (1448894_PM_at): 1.68
- FC Akr1c19 (1455454_PM_at): 2.00
- FC Alas1 1424126_PM_at: 2.02
- FC Alas1 (1455282_PM_x_at): 1.70
- FC Alcam 1426300_PM_at: 2.83
- FC Alcam 1426301_PM_at: 2.09
- FC Alcam 1437467_PM_at: 1.93
- FC Arg2 (1438841_PM_s_at): 2.63
- FC Arhgap26 (1440688_PM_at): −1.57
- FC Asns 1433966_PM_x_at: 2.49
- FC Asns 1451095_PM_at: 2.87
- FC Atp13a3 1442145_PM_at: 1.62
- FC B4galt5 (1433617_PM_s_at): −1.51
- FC BC060267 (1441979_PM_at): 1.74
- FC Bcat1 1430111_PM_a_at: −2.07
- FC Bcat1 1450871_PM_a_at: −2.20
- FC Bcat1 1455699_PM_at: −2.27
- FC Blvrb (1451386_PM_at): 2.23
- FC C3 (1423954_PM_at): 2.34
- FC C8a (1428012_PM_at): −1.51
- FC Cbr1 (1460196_PM_at): 2.10
- FC Cbr3 (1427912_PM_at): 7.02
- FC Cdkn1a (1424638_PM_at): 2.73
- FC Chrdl1 (1456722_PM_at): −1.55
- FC Cldn1 (1437932_PM_a_at): 1.57
- FC D16Ertd778e 1445089_PM_at: −2.25
- FC Dcdc2a (1459661_PM_at): 1.69
- FC Dnase2a (1430135_PM_at): 2.15
- FC Dpys (1436291_PM_a_at): 1.51
- FC Endou 1449937_PM_at: 1.89
- FC Ep400 (1449610_PM_at): −1.67
- FC Esr1 1460591_PM_at: −1.54
- FC Esr1 (1435663_PM_at): −1.75
- FC Fga (1424279_PM_at): 1.79
- FC Fgf1 1450869_PM_at: −1.58
- FC G6pdx (1448354_PM_at): 1.70
- FC Gclc (1455959_PM_s_at): 1.64
- FC Gjb1 1448766_PM_at: 1.81
- FC Gjb1 (1448767_PM_s_at): 1.67
- FC Gm5101 (1442588_PM_at): −1.50
- FC Gpr135 1441944_PM_s_at: 1.59
- FC Gpr135 1459274_PM_at: 1.65
- FC Gpt (1426502_PM_s_at): 1.51
- FC Gstm1 (1425627_PM_x_at): 1.56
- FC Gstm1 (1448330_PM_at): 1.54
- FC Gstm4 (1424835_PM_at): 1.70
- FC Gstp1 (1449575_PM_a_at): 1.54
- FC Havcr1 1434716_PM_at: 4.79
- FC Hfe 1450702_PM_at: 1.67
- FC Hist1h1c (1438204_PM_at): 1.82
- FC Hist1h2be 1440330_PM_at: 2.92
- FC Hist1h2be (1445565_PM_at): 2.48
- FC Ikbkg 1435646_PM_at: 1.76
- FC Ikbkg 1454690_PM_at: 1.54
- FC Kif20b 1439695_PM_a_at: −2.85
- FC Klk1b21 (1451607_PM_at): 1.57
- FC Lcp1 1448160_PM_at: 1.54
- FC Lpar2 1442291_PM_at: 1.93
- FC Lrat (1444487_PM_at): 1.72
- FC Maf (1435828_PM_at): 1.53
- FC Maf (1447849_PM_s_at): 1.54
- FC Myo5a (1431320_PM_a_at): −2.35
- FC Myo5a (1436051_PM_at): −2.04
- FC Nfia (1446742_PM_at): −1.74
- FC Nqo1 (1423627_PM_at): 2.11
- FC Pank1 1457110_PM_at: −1.73
- FC Pank2 1452733_PM_at: −1.97
- FC Pgd 1423706_PM_a_at: 2.27
- FC Pgd 1438627_PM_x_at: 1.83
- FC Pgd (1436771_PM_x_at): 2.03
- FC Pgd (1437380_PM_x_at): 2.05
- FC Phlda3 (1449002_PM_at): 1.81
- FC Pigl (1440965_PM_at): 1.52
- FC Pir (1429001_PM_at): 3.08
- FC Ptprr (1426047_PM_a_at): 1.69
- FC Rcor3 (1428343_PM_at): −1.51
- FC Reep6 (1430128_PM_a_at): 1.51
- FC Rnf24 1436101_PM_at: −2.01
- FC Slc5a3 (1440227_PM_at): −1.50
- FC Slc8a1 (1437675_PM_at): −1.86
- FC Slc9a8 1454865_PM_at: −2.40
- FC Slc22a14 (1440058_PM_at): 1.54
- FC Slc39a8 (1448482_PM_at): −1.55
- FC Slc48a1 (1450409_PM_a_at): 1.53
- FC Slco2a1 (1444242_PM_at): 1.63
- FC Slco4c1 (1437870_PM_at): −1.69
- FC Slco4c1 (1460616_PM_at): −2.08
- FC Smarca2 (1452333_PM_at): −1.60
- FC Srxn1 (1425351_PM_at): 1.89
- FC Srxn1 (1426875_PM_s_at): 1.91
- FC Srxn1 (1451680_PM_at): 2.09
- FC Tmc5 (1452934_PM_at): 1.91
- FC Tmie (1443964_PM_at): 1.65
- FC Trim16 (1460629_PM_at): 1.51
- FC Txnrd1 (1424487_PM_x_at): 1.74
- FC Vps8 (1434050_PM_at): −1.84
- FC Vps8 (1454810_PM_s_at): −1.55
